Measured values from ChEMBL document CHEMBL3763033, “New quinoline derivatives as nicotinic receptor modulators” (Eur J Med Chem, 2016).
Active and inactive are the calls of the source. The calls are words filed in the database; no cut-off is given here.

Tests used:
[1] = Displacement of [3H]methyllycaconitine from Sprague-Dawley rat brain alpha7* nAChR incubated for 2.5 hrs by liquid scintillation counting analysis; assay type: tissue-based
[2] = Displacement of [3H]cytisine from Wistar rat cerebral cortex alpha4beta2* nAChR incubated for 75 mins by competition binding assay; assay type: tissue-based
[3] = species on record: Gallus gallus; experiment: Activation of chicken alpha7/GlyR chimeric receptor expressed in Xenopus oocytes at 50 uM after 36 to 72 hrs by two electrode voltage clamp method; assay type: cell-based
[4] = species on record: Rattus norvegicus; experiment: (§1) Antagonist activity at rat alpha4beta2* nAChR expressed in Xenopus oocytes assessed as inhibition of epibatidine-induced ion current at 50 uM preincubated with compound followed by 1 uM epibatidine addition along with compound treatment measured after 36 to 72 hrs by two electrode voltage clamp method; assay type: cell-based
[5] = target: T1, Neuronal acetylcholine receptor subunit alpha-7 (Homo sapiens, UniProt P36544); experiment: Agonist activity at human alpha7 receptor expressed in mouse Neuro2a cells assessed as induction of intracellular calcium level measured every 2 sec for 3 mins by fluorescence microplate reader analysis in presence of 2 uM alpha7 receptor antagonist alpha-cobratoxin; assay type: cell-based
T1 sequence (P36544 whole entry): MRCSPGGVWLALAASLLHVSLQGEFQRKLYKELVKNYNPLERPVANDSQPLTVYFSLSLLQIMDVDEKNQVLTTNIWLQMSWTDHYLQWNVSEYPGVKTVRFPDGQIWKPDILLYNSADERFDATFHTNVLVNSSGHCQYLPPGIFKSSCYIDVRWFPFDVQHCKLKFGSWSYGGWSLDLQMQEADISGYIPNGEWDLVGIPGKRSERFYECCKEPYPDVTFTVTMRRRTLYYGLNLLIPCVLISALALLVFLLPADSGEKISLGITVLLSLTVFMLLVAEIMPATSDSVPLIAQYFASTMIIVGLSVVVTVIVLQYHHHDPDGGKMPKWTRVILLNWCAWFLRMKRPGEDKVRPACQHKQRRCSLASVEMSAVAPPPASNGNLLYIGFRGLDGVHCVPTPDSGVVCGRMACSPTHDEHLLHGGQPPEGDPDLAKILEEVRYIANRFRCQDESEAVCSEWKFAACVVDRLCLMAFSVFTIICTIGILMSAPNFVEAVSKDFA

[6] = species on record: Gallus gallus; experiment: as §1, with “chicken alpha7/GlyR chimeric receptor” for “rat alpha4beta2* nAChR”, “acetylcholine-induced” for “epibatidine-induced”, “100” for “1”, “acetylcholine” for “epibatidine”; assay type: cell-based
[7] = species on record: Rattus norvegicus; experiment: Selectivity ratio of Ki for Wistar rat cerebral cortex alpha4beta2* nAChR to Ki for Sprague-Dawley rat brain alpha7* nAChR; assay type: tissue-based
[8] = species on record: Rattus norvegicus; experiment: Activation of rat alpha4beta2* nAChR expressed in Xenopus oocytes at 50 uM after 36 to 72 hrs by two electrode voltage clamp method; assay type: cell-based
[9] = target: T1, Neuronal acetylcholine receptor subunit alpha-7; experiment: Agonist activity at human alpha7 receptor expressed in mouse Neuro2a cells assessed as induction of intracellular calcium level preincubated with PNU-120596 for 20 mins followed by compound addition measured every 2 sec for 3 mins by fluorescence microplate reader analysis; assay type: cell-based
[10] = species on record: Rattus norvegicus; experiment: Displacement of [3H]cytisine from Wistar rat cerebral cortex alpha4beta2* nAChR at 1 uM incubated for 75 mins by competition binding assay; assay type: tissue-based
[11] = species on record: Rattus norvegicus; experiment: Displacement of [3H]methyllycaconitine from Sprague-Dawley rat brain alpha7* nAChR at 1 uM incubated for 2.5 hrs by liquid scintillation counting analysis; assay type: tissue-based
[12] = target: T1, Neuronal acetylcholine receptor subunit alpha-7; experiment: (§2) Antagonist activity at human alpha7 receptor expressed in mouse Neuro2a cells assessed as inhibition of acetylcholine iodide-induced intracellular calcium level at 50 uM preincubated with PNU-120596 for 20 mins followed by acetylcholine iodide addition along with compound treatment measured every 2 sec for 3 mins by fluorescence microplate reader analysis; assay type: cell-based
[13] = species on record: Rattus norvegicus; experiment: Selectivity ratio of Ki for Sprague-Dawley rat brain alpha7* nAChR to Ki for Wistar rat cerebral cortex alpha4beta2* nAChR; assay type: tissue-based
[14] = target: T1, Neuronal acetylcholine receptor subunit alpha-7; experiment: as §2, with “300” for “50”; assay type: cell-based

Structure (SMILES)	Activity [10] [%]	Activity [11] [%]	also measured
c1cnc2ccc(N3CCN4CCC3CC4)cc2c1	–	–	Ki [1]: 96 nM; Ki [2]: > 1000 nM; Activity [3]: inactive; inhibition [4]: Active; Activity [5]: inactive; inhibition [6]: Active; Ratio Ki [7]: 10; Activity [8]: inactive; EC50 [9]: 1410 nM
O=C(c1ccc2ncccc2c1)N1CCN2CCC1C2 (stereo not given)	< 20	< 20	–
Cc1ccc2oc(N3CCN4CCC3CC4)nc2n1	–	–	Ki [1]: 13.5 nM
O=C(c1ccc2cccnc2c1)N1CCN2CCC1CC2	< 20	< 20	–
C[N+]12CCC(CC1)C(NC(=O)c1ccc3ncccc3c1)C2 (stereo not given)	< 20	< 20	–
O=C(NC1CN2CCC1CC2)c1ccc2cccnc2c1 (stereo not given)	–	–	Ki [1]: 287 nM; Ki [2]: > 1000 nM; Activity [3]: inactive; inhibition [4]: Active; Activity [5]: inactive; inhibition [12]: Active; inhibition [6]: Active; Ratio Ki [7]: 3; Activity [8]: inactive; EC50 [9]: 1570 nM
C[N+]12CCC(C1)N(c1ccc3cnccc3c1)CC2 (stereo not given)	< 20	< 20	–
O=C(Oc1ccc(Br)cc1)N1CCN2CCC1CC2 [SSR180711]	–	–	Ki [1]: 22 nM
C[N+]12CCC(C1)N(C(=O)c1ccc3ncccc3c1)CC2 (stereo not given)	< 20	< 20	–
c1cc(N2CCN3CCC2C3)c2cccnc2c1 (stereo not given)	< 20	< 20	–
C[N+]12CCC(C1)N(c1ccc3ncccc3c1)CC2 (stereo not given)	< 20	< 20	–
O=C(N[C@H]1CN2CCC1CC2)c1ccc(Cl)cc1 [PNU-282987]	–	–	Ki [1]: 24 nM
c1cnc2cc(N3CCN4CCC3C4)ccc2c1 (stereo not given)	< 20	< 20	–
C[N+]12CCC(C1)N(C(=O)c1ccc3cccnc3c1)CC2 (stereo not given)	< 20	< 20	–
O=C(N[C@H]1CN2CCC1CC2)c1cc2cccc(Cl)c2s1 [ENCENICLINE]	–	–	Ki [1]: 9.98 nM
C[N+]12CCC(CC1)N(C(=O)c1ccc3cccnc3c1)CC2	< 20	< 20	–
O=C(c1ccc2cccnc2c1)N1CCN2CCC1C2 (stereo not given)	< 20	< 20	–
O=C(NC1CN2CCC1CC2)c1cccc2cnccc12 (stereo not given)	< 20	< 20	–
c1cc2cc(N3CCN4CCC3CC4)ccc2cn1	–	–	Ki [1]: 248 nM; Ki [2]: > 1000 nM; Ratio Ki [7]: 3
C1=C(c2ccc3ncccc3c2)C2CCN1CC2	< 20	< 20	–

Structure (SMILES)	Activity [10] [%]	Activity [11] [%]	also measured
c1cnc2ccc(C3CN4CCC3CC4)cc2c1 (stereo not given)	< 20	< 20	–
O=C(NC1CN2CCC1CC2)c1ccc2ncccc2c1 (stereo not given)	< 20	< 20	–
O=C(c1ccc2ncccc2c1)N1CCN2CCC1CC2	< 20	< 20	–
C[N+]12CCC(C1)N(C(=O)c1cccc3cnccc13)CC2 (stereo not given)	< 20	< 20	–
O=C(c1cccc2cnccc12)N1CCN2CCC1C2 (stereo not given)	< 20	< 20	–
C[N+]12CCC(CC1)N(C(=O)c1ccc3ncccc3c1)CC2	< 20	< 20	–
C[N+]12CCC(C1)N(c1cccc3ncccc13)CC2 (stereo not given)	< 20	< 20	–
c1cnc2cc(N3CCN4CCC3CC4)ccc2c1	–	–	Ki [1]: 117 nM; Ki [2]: > 1000 nM; Activity [3]: inactive; inhibition [4]: Active; Activity [5]: inactive; inhibition [6]: Active; Ratio Ki [7]: 3; Activity [8]: inactive; EC50 [9]: 1090 nM
C[N+]12CCC(CC1)C(NC(=O)c1cccc3cnccc13)C2 (stereo not given)	< 20	< 20	–
CCN1C[C@]2(COC(=O)c3ccccc3N3C(=O)CC(C)C3=O)CC[C@H](OC)[C@@]34C2[C@H](OC)[C@](O)(C13)[C@@]1(O)C[C@H](OC)[C@H]2C[C@@H]4[C@@H]1[C@H]2OC (stereo not given in full)	–	–	Ki [1]: 1.4 nM
C[N+]12CCC(CC1)N(C(=O)c1cccc3cnccc13)CC2	< 20	< 20	–
C[N+]12CCC(CC1)C(NC(=O)c1ccc3cccnc3c1)C2 (stereo not given)	< 20	< 20	–
c1cc(N2CCN3CCC2CC3)c2cccnc2c1	< 20	< 20	–
c1cc2cc(N3CCN4CCC3C4)ccc2cn1 (stereo not given)	< 20	< 20	–
C[N+]12C=C(c3ccc4ncccc4c3)C(CC1)CC2	< 20	< 20	–
CN1CCC[C@H]1c1cccnc1 [NICOTINE]	–	–	Ki [2]: 2.3 nM
c1cncc(C2CCC3CCN2CC3)c1 (stereo not given)	–	–	Ki [1]: 11 nM
c1cnc2ccc(N3CCN4CCC3C4)cc2c1 (stereo not given)	–	–	Ki [1]: > 1000 nM; Ratio Ki [13]: 2; Ki [2]: 412 nM; Activity [3]: inactive; inhibition [4]: Active; inhibition [6]: Active; Activity [8]: inactive; inhibition [14]: Active
O=C(c1cccc2cnccc12)N1CCN2CCC1CC2	< 20	< 20	–
